From patent US6552014B2, “Methods of inhibiting platelet activation with selective serotonin reuptake inhibitors” (HeartDrug Research, L.L.C., priority 1999, dated 2003)

Legend:
platelets = experiment: Platelet aggregation in whole blood (ADP or collagen); type: cell-based, human
Procedure: (§1) Trisodium citrate (3.8%) and whole blood is immediately mixed in a 1:9 ratio, and then centrifuged at 1200 g for 2.5 minutes, to obtain platelet-rich plasma (PRP), which is kept at room temperature for use within 1 hour for platelet aggregation studies. Platelet count is determined in each PRP sample with a Coulter Counter ZM (Coulter Co., Hialeah, Fla.). Platelet numbers are adjusted to 3.50×10^8/ml for aggregation with homologous platelet-poor plasma. PRP and whole blood aggregation tests are performed simultaneously. Whole blood is diluted 1.1 with the 0.5 ml PBS, and then swirled gently to mix . The cuvette with the stirring bar is placed in the incubation well and allowed to warm to 37° C. for 5 minutes. Then the sample are transferred to the assay well. An electrode is placed in the sample cuvette. Platelet aggregation is stimulated with 5 μM ADP, 1 μg/ml collagen, and 0.75 mM arachidonic acid. All agonists are obtained from Chronolog Corporation (Hawertown, Pa.). […] Platelet aggregability are expressed as the percentage of light transmittance change from baseline using platelet-poor plasma as a reference at the end of recording time for plasma samples, or as a change in electrical impedance for whole blood samples. Aggregation curves are recorded for 4 minutes and analyzed according to internationally established standards using Aggrolinkg® software.

[1] = in vivo; cited from earlier work
P-selectin = experiment: Flow cytometry of platelet antigen expression, platelet rich plasma; type: cell-based, human; details: PRP
Excerpt: For ex vivo assessment of the SSRIs effect on a PAM, a level of a PAM can be assessed by flow cytometry by first obtaining a sample that comprises platelets and then contacting the sample with a platelet activation agonist, such as phorbol myristate acetate (PMA), ADP (adenosine diphosphate), thrombin, collagen, and/or TRAP (thrombin receptor activating peptide), under conditions suitable for activation of platelets in the sample. The sample is in contact with the agonist preferably for a period of time effective to maximally activate the platelets. […] Then the formation of the complex in the sample is determined (detected or measured). […] The blood-ACD mixture was centrifuged at 1000 r.p.m. for 10 minutes at room temperature. […] The PRP was then centrifuged at 3000 r.p.m. for 10 minutes. […] All cells were then divided into ten plastic capped tubes. Nine portions of washed platelets were incubated with 5 μfluorescein isothiocyanate (FITC)-conjugated antibodies in the dark at +4 °C for 30 minutes, and one part remained unstained and served as a negative control. […] The instrument was calibrated daily with fluorescence beads (CaliBRITE; Becton Dickinson) and measured FITC-conjugated fluorescence intensity. All parameters were obtained using four decade logarithmic amplification. The data was collected and stored in list mode, and then analyzed using CELLQuest® (version 1.2.2) software. Procedures are described in detail in (Gurbel, P. […] Serebruany, V. […] The levels of various PAMs were assess from samples of human volunteers.

human platelets = experiment: Platelet inhibition / platelet activation state, overall statement; type: cell-based; details: platelet rich plasma and whole blood
Procedure: as §1, with “.” for “. The cuvette with the stirring bar is placed in the incubation well and allowed to warm to 37° C. for 5 minutes. Then the sample are transferred to the assay well. An electrode is placed in the sample cuvette. Platelet aggregation is stimulated with 5 μM ADP, 1 μg/ml collagen, and 0.75 mM arachidonic acid. All agonists are obtained from Chronolog Corporation (Hawertown, Pa.).”
Venous blood (8 ml) was collected in a plastic tube containing 2 ml of acid-citrate-dextrose (ACD) (7.3 g citric acid, 22.0 g sodium citrate×2H2O and 24.5 glucose in 1000 ml distilled water) and mixed well. […] Samples were stored in the refrigerator at +4 °C, and analyzed on a Becton Dickinson FACScan flow cytometer with laser output of 15 mw, excitation at 488 nm, and emission detection at 530±30 nm. […]

CD9 = experiment: Flow cytometry of platelet antigen expression, platelet rich plasma; type: cell-based, human; details: PRP; healthy volunteers; desmethylsertraline 64.2 ng/ml
GP IIb = experiment: as above; type: cell-based, human; details: PRP, desmethylsertraline 64.2 ng/ml
GP IIIa = experiment: as above; type: cell-based, human; details: PRP, desmethylsertraline 64.2 ng/ml
[2] = healthy volunteers, desmethylsertraline 31.1 ng/ml
[3] = healthy volunteers, desmethylsertraline 64.2 ng/ml
[4] = healthy volunteers, desmethylsertraline 143 ng/ml
[5] = post-angioplasty patient on aspirin, desmethylsertraline 31.1 ng/ml
[6] = post-angioplasty patient on aspirin, desmethylsertraline 64.2 ng/ml
[7] = post-angioplasty patient on aspirin, desmethylsertraline 143 ng/ml
[8] = post-angioplasty patient on aspirin

CN[C@H]1CC[C@@H](c2ccc(Cl)c(Cl)c2)c2ccccc21 [sertraline]
ADP-, and collagen-induced platelet aggregation in whole blood (in vitro), in words (platelets; healthy controls and patients with coronary artery disease, including those on aspirin): Dose-dependent inhibition
percent of platelet aggregation (FIGS. 2 and 3), in words (platelets; whole blood, healthy volunteer, induced with ADP or collagen, sertraline 18.1, 44.7 or 85.3 ng/ml): decreases with increasing amounts of sertraline
half life [1]: 25 to 32 h

N[C@H]1CC[C@@H](c2ccc(Cl)c(Cl)c2)c2ccccc21 [Desmethyl sertraline, N-desmethylsertraline]
P-selectin (mean) log fluorescence intensity (P-selectin; [2]): 11.8
P-selectin (peak) log fluorescence intensity (P-selectin; [2]): 459
P-selectin (mean) log fluorescence intensity (P-selectin; [3]): 10.5
P-selectin (peak) log fluorescence intensity (P-selectin; [3]): 494
P-selectin (mean) log fluorescence intensity (P-selectin; [4]): 13.5
P-selectin (peak) log fluorescence intensity (P-selectin; [4]): 398
P-selectin (mean) log fluorescence intensity (P-selectin; [5]): 15
P-selectin (peak) log fluorescence intensity (P-selectin; [5]): 322
P-selectin (mean) log fluorescence intensity (P-selectin; [6]): 11
P-selectin (peak) log fluorescence intensity (P-selectin; [6]): 537
P-selectin (mean) log fluorescence intensity (P-selectin; [7]): 13.4
P-selectin (peak) log fluorescence intensity (P-selectin; [7]): 378
platelet inhibition / platelet activation state, in words (human platelets): potent dose-dependent effects inhibiting human platelets
platelet inhibition / platelet activation state, in words (human platelets; listed as NDMS): significantly reduces the platelet activation state
CD9 (mean) log fluorescence intensity (CD9): 859
GP IIb (mean) log fluorescence intensity (GP IIb; healthy volunteers): 37
GP IIb (peak) log fluorescence intensity (GP IIb; [8]): 20
GP IIIa (peak) log fluorescence intensity (GP IIIa; healthy volunteers): 1144
GP IIIa (mean) log fluorescence intensity (GP IIIa; [8]): 1247
